Measured values: paper PMC4476799, “Englerin A Agonizes the TRPC4/C5 Cation Channels to Inhibit Tumor Cell Line Proliferation” (PLoS ONE, 2015)

Assays:
A-673 cells = assay type: cell-based
Experimental: Cell viability was measured 48 hours later using Cell Titer-Glo.

TRPC4 = target: T1, TRPC4 (Homo sapiens, UniProt Q9UBN4); test: Electrophysiology (QPatch-HT automated patch clamp, voltage ramp); assay type: cell-based; details: 10 μM ML204 + 5 μM englerin A; Dox-induced TRPC4
T1 construct: host or cells: Flp-In T-REx-293 (called HEK293T with Dox-inducible TRPC4)
T1 sequence (Q9UBN4 1-977): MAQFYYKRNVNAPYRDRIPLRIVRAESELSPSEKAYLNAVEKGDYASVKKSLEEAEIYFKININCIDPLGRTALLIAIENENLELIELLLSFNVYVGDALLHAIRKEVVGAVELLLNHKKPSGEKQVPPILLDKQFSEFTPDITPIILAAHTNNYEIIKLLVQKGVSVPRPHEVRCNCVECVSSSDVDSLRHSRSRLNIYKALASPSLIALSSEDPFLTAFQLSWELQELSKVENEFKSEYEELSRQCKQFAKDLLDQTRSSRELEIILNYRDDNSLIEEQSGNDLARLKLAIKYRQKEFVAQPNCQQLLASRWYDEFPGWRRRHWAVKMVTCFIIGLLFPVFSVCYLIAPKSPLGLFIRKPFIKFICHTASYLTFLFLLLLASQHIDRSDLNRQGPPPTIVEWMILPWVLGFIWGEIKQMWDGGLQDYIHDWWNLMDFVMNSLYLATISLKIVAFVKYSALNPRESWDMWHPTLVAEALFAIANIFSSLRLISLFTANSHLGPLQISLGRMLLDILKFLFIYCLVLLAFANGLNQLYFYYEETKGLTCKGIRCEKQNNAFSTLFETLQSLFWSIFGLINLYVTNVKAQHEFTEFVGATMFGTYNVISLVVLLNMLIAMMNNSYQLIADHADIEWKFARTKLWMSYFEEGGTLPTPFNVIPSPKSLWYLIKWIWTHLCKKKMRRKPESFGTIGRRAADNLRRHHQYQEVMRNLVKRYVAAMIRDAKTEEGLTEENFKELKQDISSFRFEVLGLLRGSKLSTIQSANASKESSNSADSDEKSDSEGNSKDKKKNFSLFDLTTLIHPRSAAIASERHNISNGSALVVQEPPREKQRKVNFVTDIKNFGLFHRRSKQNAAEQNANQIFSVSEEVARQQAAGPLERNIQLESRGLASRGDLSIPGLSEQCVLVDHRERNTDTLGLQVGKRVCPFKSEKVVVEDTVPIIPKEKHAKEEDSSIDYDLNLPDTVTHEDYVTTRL
Experimental: TRPC4 currents were recorded from HEK293T cells with Dox-inducible TRPC4 on the QPatch-HT automated patch clamp system at room temperature (21–24°C) (Biolin Scientific, Stockholm, Sweden). The internal solution contained (in mM): 150 Cs-aspartate, 2 MgCl2, 0.36 CaCl2, 1 EGTA, 4 MgATP, 0.3 NaGTP and 10 HEPES, pH = 7.20 with CsOH (calculated free [Ca^2+] = 100 nM using WebMaxChelator http://www.stanford.edu/~cpatton/maxc.html, assuming an ionic strength of 0.16). The standard external solution contained (in mM): 150 NaCl, 4 KCl, 2 CaCl2, 1 MgCl2, 10 HEPES and 10 D-glucose (pH = 7.40) with NaOH. Currents were elicited by a voltage ramp protocol consisting of a 50 ms step to −100 mV, followed by a 200 ms ramp to +100 mV and 10 ms at +100 mV. Voltage ramps were applied every 10 s from a holding potential of 0 mV. Results were expressed as means ± S.E.M.

effect on englerin A induced inward and outward currents (TRPC4): inhibited
SMILES: Cc1cc(N2CCCCC2)nc2ccccc12 [ML204]
doses of ML204 alone at which A-673 cell growth is impaired (A-673 cells): higher than 50 μM
rescue of growth inhibition by englerin A (A-673 cells; 50 μM ML204 with 50 nM englerin A, A-673 cells): partially rescued
